Test system: male spontaneously hypertensive rats
Test: Decrease in systolic blood pressure in spontaneously hypertensive rats after intravenous bolus injection, indirect (tail-cuff) method
Format: in vivo, rat
Settings: for Decrease in systolic blood pressure (mmHg) time after administration (hour) 0.5: 0.5 hour after administration; for Decrease in systolic blood pressure (mmHg) time after administration (hour) 4: 4 hours after administration
Experimental: As test animals, four male spontaneously hypertensive rats (weight 400 to 440 g) that were sufficiently adapted for feeding and in which hypertension was confirmed were used.
Physiological saline aqueous solution containing 2.5% Nicolle and 2.5% ethanol of sample was intravenously administered by bolus injection at a dose of 1 ml per 1 kg of body weight. Systolic blood pressure after administration was measured by the indirect (tail-cuff) method.

Compound | Decrease in systolic blood pressure (mmHg) time after administration (hour) 0.5 (dose 10 mg/kg i.v. bolus) [mmHg] | Decrease in systolic blood pressure (mmHg) time after administration (hour) 4 (dose 10 mg/kg i.v. bolus) [mmHg] | also measured
COC(=O)c1ccccc1C=CCN1CCC(=C2c3ccccc3C=Cc3ccccc32)CC1.Cl [Example 374, 4-(5H-Dibenzo[a,d]cyclohepten-5-ylidene)-1-(2-methoxycarbonylcinnamyl)piperidine hydrochloride] | – | – | Decrease in systolic blood pressure (mmHg) time after administration (hour) 0.5 (dose 3 mg/kg i.v. bolus): −119 mmHg; Decrease in systolic blood pressure (mmHg) time after administration (hour) 4 (dose 3 mg/kg i.v. bolus): 11 mmHg
CC(=O)N1CCC(CCCN2CCC(=C3c4ccccc4C=Cc4ccccc43)CC2)CC1.Cl [Example 308, 1-(N-acetyl-4-piperidinyl)-3-(4-(5H-dibenzo[a,d]cyclohepten-5-ylidene)-1-piperidinyl)propane hydrochloride] | – | – | Decrease in systolic blood pressure (mmHg) time after administration (hour) 0.5 (dose 3 mg/kg i.v. bolus): −27 mmHg; Decrease in systolic blood pressure (mmHg) time after administration (hour) 4 (dose 3 mg/kg i.v. bolus): −5 mmHg
Cl.O=[N+]([O-])c1ccc(C=CCN2CCC(=C3c4ccccc4CCc4ccccc43)CC2)cc1 [Example 350, 4-(10,11-Dihydro-5H-dibenzo[a,d]cyclohepten-5-ylidene)-1-(4-nitrocinnamyl)piperidine hydrochloride] | −136 | −85 | –
C1=Cc2ccccc2C(=C2CCN(CCCCc3ccccc3)CC2)c2ccccc21.Cl [Example 15, 4-(4-(5H-Dibenzo[a,d]cyclohepten-5-ylidene)-1-piperidinyl)-1-phenylbutane hydrochloride] | −130 | −136 | –
COC(=O)Nc1ccc(C=CCN2CCC(=C3c4ccccc4C=Cc4ccccc43)CC2)cc1.Cl [Example 378, 4-(5H-Dibenzo[a,d]cyclohepten-5-ylidene)-1-(4-methoxycarbonylaminocinnamyl)piperidine hydrochloride] | – | – | Decrease in systolic blood pressure (mmHg) time after administration (hour) 0.5 (dose 1 mg/kg i.v. bolus): −106 mmHg; Decrease in systolic blood pressure (mmHg) time after administration (hour) 4 (dose 1 mg/kg i.v. bolus): −90 mmHg
COCC(=O)Oc1ccc(C=CCN2CCC(=C3c4ccccc4C=Cc4ccccc43)CC2)cc1.Cl [Example 383, 4-(5H-Dibenzo[a,d]cyclohepten-5-ylidene)-1-(4-(2-methoxyacetoxy)cinnamyl)piperidine hydrochloride] | – | – | Decrease in systolic blood pressure (mmHg) time after administration (hour) 0.5 (dose 3 mg/kg i.v. bolus): −112 mmHg; Decrease in systolic blood pressure (mmHg) time after administration (hour) 4 (dose 3 mg/kg i.v. bolus): −86 mmHg
Cl.[O-][S+](CCCN1CCC(=C2c3ccccc3C=Cc3ccccc32)CC1)c1ccccc1 (centres unmarked) [Example 239, 3-(4-(5H-Dibenzo[a,d]cyclohepten-5-ylidene)-1-piperidinyl)-1-propyl phenylsulphoxide hydrochloride] | −68 | −15 | –
COc1ccc(C(=O)C(C)CCN2CCC(=C3c4ccccc4C=Cc4ccccc43)CC2)cc1OC.Cl (centres unmarked) [Example 274, 4-(4-(5H-Dibenzo[a,d]cyclohepten-5-ylidene)-1-piperidinyl)-2-methyl-3′,4′-dimethoxybutyrophenone hydrochloride] | −102 | −21 | –
1-(4-Acetylaminominocinnamyl)-4-(5H-Dibenzo[a,d]thiepiz-5-ylidene)-1-piperidine hydrochloride [Example 327] | – | – | Decrease in systolic blood pressure (mmHg) time after administration (hour) 0.5 (dose 3 mg/kg i.v. bolus): −10 mmHg; Decrease in systolic blood pressure (mmHg) time after administration (hour) 4 (dose 3 mg/kg i.v. bolus): −43 mmHg
C1=Cc2ccccc2C(=C2CCN(CCCCCCCC3CCCCC3)CC2)c2ccccc21.Cl [Example 155, 1-Cyclohexyl-7-(4-(5H-dibenzo[a,d]cyclohepten-5-ylidene)-1-piperidinyl)heptane hydrochloride] | −131 | −105 | –
CCOC(=O)N1CCCC(CCCCN2CCC(=C3c4ccccc4C=Cc4ccccc43)CC2)C1.Cl (centres unmarked) [Example 312, 4-(4-(5H-Dibenzo[a,d]cyclohepten-5-ylidene)-1-piperidinyl)-1-(N-ethoxycarbonyl-3-piperidinyl)butane hydrochloride] | −115 | −11 | –
Cl.O=C(CCN1CCC(=C2c3ccccc3C=Cc3ccccc32)CC1)OC1CCCCC1 [Example 236, Cyclohexyl 3-(4-(5H-Dibenzo[a,d]cyclohepten-5-ylidene)-1-piperidinyl)propionate hydrochloride] | −10 | −15 | –
O=C(c1cccc2ccccc12)N1CCC(=C2c3ccccc3C=Cc3ccccc32)CC1 [Example 213, 4-(5H-Dibenzo[a,d]cyclohepten-5-ylidene)-1-(1-naphthoyl)piperidine] | −82 | 3 | –
Cl.c1ccc2c(c1)Sc1ccccc1C2=C1CCN(CCCCC2CCCCC2)CC1 [Example 182] | −11 | −6 | –
4-(4-(5H-Dibenzo[a,d]cyclohepten-5-ylidene)-1-piperidinyl)-3′,4′-dimethoxybutyrophenone N-oxide [Example 271] | −17 | −13 | –
CC(=O)Nc1ccc2c(c1)CC(CN1CCC(=C3c4ccccc4C=Cc4ccccc43)CC1)C2.Cl (centres unmarked) [Example 334, 5′-acetylamino-2-(4-(5H-Dibenzo[a,d]cyclohepten-5-ylidene)-1-piperidinyl)methylindan hydrochloride] | – | – | Decrease in systolic blood pressure (mmHg) time after administration (hour) 0.5 (dose 3 mg/kg i.v. bolus): −130 mmHg; Decrease in systolic blood pressure (mmHg) time after administration (hour) 4 (dose 3 mg/kg i.v. bolus): −93 mmHg
COc1cc(C(C#N)(CCCN2CCC(=C3c4ccccc4C=Cc4ccccc43)CC2)C(C)C)cc(OC)c1OC.Cl (centres unmarked) [Example 126, 5-(4-(5H-Dibenzo[a,d]cyclohepten-5-ylidene)-1-piperidinyl)-2-isopropyl-2-(3,4,5-trimethoxyphenyl)valeronitrile hydrochloride] | −87 | −19 | –
Cl.Clc1ccc(CN2CCC(=C3c4ccccc4C=Cc4ccccc43)CC2)cc1 [Example 130, 1-(4-Chlorobenzyl)-4-(5H-Dibenzo[a,d]cyclohepten-5-ylidene)piperidine hydrochloride] | −42 | 9 | –
CCOC(=O)CCCN1CCC(=C2c3ccccc3C=Cc3ccccc32)CC1.Cl [Example 199, Ethyl 4-(4-(5H-dibanzo[a,d]cyclohepten-5-ylidene)-1-piperidinyl)butyrate hydrochloride] | −15 | −24 | –
Cl.N#CC(CCCN1CCC(=C2c3ccccc3C=Cc3ccccc32)CC1)c1cccc(C(F)(F)F)c1 (centres unmarked) [Example 59, 5-(4-(5H-Dibenzo[a,d]cyclohepten-5-ylidene)-1-piperidinyl)-2-(3-trifluoromethylphenyl)valeronitrile hydrochloride] | −87 | −21 | –
COc1ccc(CN2CCC(=C3c4ccccc4C=Cc4ccccc43)CC2)cc1OC.Cl [Example 174, 4-(5H-Dibenzo[a,d]cyclohepten-5-ylidene)-1-(3,4-dimethoxybenzyl)piperidine hydrochloride] | −8 | −16 | –
COc1cc(CCCN2CCC(=C3c4ccccc4C=Cc4ccccc43)CC2)cc(OC)c1OC.Cl.Cl [Example 317, 3-(4-(5H-Dibenzo[a,d]cyclohepten-5-ylidene)-1-piperidinyl)-1-(3,4,5-trimethoxyphenyl)propane dihydrochloride] | −118 | −14 | –
CCOc1ccc(C(=O)CCCN2CCC(=C3c4ccccc4C=Cc4ccccc43)CC2)cc1OCC.Cl [Example 194, 4-(4-(5H-Dibenzo[a,d]cyclohepten-5-ylidene)-1-piperidinyl)-3′,4′-diethoxybutyrophenone hydrochloride] | −59 | −17 | –
2,6-Dimethyl-4-(4-(4-(5H-Dibenzo[a,d]cyclohepten-5-ylidene)-1-piperidinyl)-1-butyl)-5-methylpyrydine-3,5-dicarboxylate dihydrochloride [Example 288] | −92 | −14 | –
CC(=O)Nc1ccc(C=CCN2CCC(=C3c4ccccc4C=Cc4ccccc43)CC2)cc1.Cl.Cl [Example 232, 1-(4-Acetylaminocinnamyl)-4-(5H-dibenzo[a,d]cyclohepten-5-ylidene)piperidine dihydrochloride] | – | – | Decrease in systolic blood pressure (mmHg) time after administration (hour) 0.5 (dose 1 mg/kg i.v. bolus): −92 mmHg; Decrease in systolic blood pressure (mmHg) time after administration (hour) 4 (dose 1 mg/kg i.v. bolus): −85 mmHg
Cl.Oc1ccc(C=CCN2CCC(=C3c4ccccc4C=Cc4ccccc43)CC2)cc1 [Example 363, 4-(5H-Dibenzo[a,d]cyclohepten-5-ylidene)-1-(4-hydroxycinnamyl)piperidine hydrochloride] | – | – | Decrease in systolic blood pressure (mmHg) time after administration (hour) 0.5 (dose 3 mg/kg i.v. bolus): −120 mmHg
Cl.Fc1ccc(C2(CCCN3CCC(=C4c5ccccc5C=Cc5ccccc54)CC3)OCCO2)cc1 [Example 124] | −90 | −20 | –
